Reference: patent US7998965B2, “Glutamate aggrecanase inhibitors” (Wyeth LLC, priority 2005, dated 2011)
Read-outs that look alike come from different tables or passages of the source.

Experiments:
[1] = biological target: T1, purified recombinant human Aggrecanase-2 (Ag2t-Phe628-Strep) (Homo sapiens, UniProt Q9UNA0); experiment: In vitro fluorescence screen for Aggrecanase-2 inhibitors; assay type: biochemical; settings: for IC50: read-out: Agg 2 IC50; for Ki: read-out: Ki Agg2
T1 construct: the form used is denoted as Ag2t-Phe628-Strep (MW=41,737)
T1 sequence (Q9UNA0 262-628): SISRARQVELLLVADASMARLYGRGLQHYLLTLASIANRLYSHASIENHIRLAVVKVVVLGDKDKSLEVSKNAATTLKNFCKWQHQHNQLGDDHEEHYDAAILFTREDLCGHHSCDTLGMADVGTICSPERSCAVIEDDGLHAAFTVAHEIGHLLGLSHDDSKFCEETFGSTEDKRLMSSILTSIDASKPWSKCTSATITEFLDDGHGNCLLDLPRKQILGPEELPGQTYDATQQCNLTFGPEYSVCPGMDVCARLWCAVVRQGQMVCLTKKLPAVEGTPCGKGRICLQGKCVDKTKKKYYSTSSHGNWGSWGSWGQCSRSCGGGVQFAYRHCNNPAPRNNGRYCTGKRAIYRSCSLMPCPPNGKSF

[2] = biological target: T2, purified recombinant human Aggrecanase-1 (rAgg1) (Homo sapiens, UniProt O75173); experiment: In vitro fluorescence screen for Aggrecanase-1 inhibitors; assay type: biochemical; design: Agg1 % at concentration: scale not given here; settings: for IC50: read-out: Agg1 IC50; for Ki: read-out: Ki Agg1
T2 sequence (O75173 213-837): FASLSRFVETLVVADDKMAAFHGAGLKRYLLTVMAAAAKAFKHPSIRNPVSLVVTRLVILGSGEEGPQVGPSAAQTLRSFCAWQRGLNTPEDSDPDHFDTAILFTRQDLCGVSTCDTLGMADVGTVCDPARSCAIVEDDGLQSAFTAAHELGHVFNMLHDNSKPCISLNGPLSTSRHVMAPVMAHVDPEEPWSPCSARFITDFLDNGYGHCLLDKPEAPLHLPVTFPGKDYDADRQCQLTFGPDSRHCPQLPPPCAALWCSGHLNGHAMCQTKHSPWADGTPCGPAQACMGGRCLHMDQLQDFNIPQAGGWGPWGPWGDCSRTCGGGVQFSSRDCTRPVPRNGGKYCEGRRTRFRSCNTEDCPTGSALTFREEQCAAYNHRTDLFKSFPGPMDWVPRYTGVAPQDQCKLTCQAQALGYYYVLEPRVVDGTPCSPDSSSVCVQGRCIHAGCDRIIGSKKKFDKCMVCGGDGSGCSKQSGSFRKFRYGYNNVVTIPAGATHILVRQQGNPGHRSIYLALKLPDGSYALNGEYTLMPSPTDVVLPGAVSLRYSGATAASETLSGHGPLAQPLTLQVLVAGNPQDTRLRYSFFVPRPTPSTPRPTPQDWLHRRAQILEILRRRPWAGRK

SMILES | IC50 ([1]; Table 2) [nM] | IC50 ([2]; Table 2) [nM] | IC50 ([1]; Table 3) [nM] | IC50 ([2]; Table 3) [nM] | other results
COc1cccc(-c2ccc(C(=O)N[C@@H](CCC(=O)O)C(=O)NC(C)(C)Cc3ccc(F)cc3)cc2)c1 [Example 17EE, N-[2-(4-fluorophenyl)-1,1-dimethylethyl]-N^2-[(3′-methoxybiphenyl-4-yl)carbonyl]-L-α-glutamine] | 194 | < 30 | – | – | –
COc1cccc(-c2cccc(COc3ccc(-c4ccc(C(=O)N[C@@H](CCC(=O)O)C(=O)NCc5ccccc5)cc4)cc3)c2)c1 [Example 15V, N-benzyl-N^2-({4′-[(3′-methoxybiphenyl-3-yl)methoxy]biphenyl-4-yl}carbonyl)-L-α-glutamine] | – | – | 700 | – | Agg1 % at concentration ([2]; Table 3, at 40 (nM)): 47% 40
COc1cc(CNC(=O)[C@H](CCC(=O)O)NC(=O)c2cccc(Oc3ccccc3)c2)cc(OC)c1OC [Example 8WWWW, N^2-(3-phenoxybenzoyl)-N^1-(3,4,5-trimethoxybenzyl)-L-α-glutamine] | > 67000 | 8300 | – | – | –
CC(C)(Cc1ccc(Cl)s1)NC(=O)[C@H](CCC(=O)O)NC(=O)c1ccc(-c2ccc(F)c(Cl)c2)s1 [Example 8KKKKKKK, N^2-{[5-(3-chloro-4-fluorophenyl)-2-thienyl]carbonyl}-N-[2-(5-chloro-2-thienyl)-1,1-dimethylethyl]-L-α-glutamine] | – | – | < 30 | < 30 | –
COc1cccc(-c2ccccc2COc2ccc(-c3ccc(C(=O)N[C@@H](CCC(=O)O)C(=O)NCc4ccccc4)cc3)cc2)c1 [Example 15X, N-benzyl-N^2-({4′-[(3′-methoxybiphenyl-2-yl)methoxy]biphenyl-4-yl}carbonyl)-L-α-glutamine] | – | – | – | – | Agg 2 % at concentration ([1]; Table 3, at 11000 (nM)): 52%; Agg1 % at concentration ([2]; Table 3, at 1900 (nM)): 46%
CC(C)(Cc1ccc(Cl)cc1)NC(=O)[C@H](CCC(=O)O)NC(=O)c1ccc(-c2cccc(F)c2F)cc1 [Example 8EEEEEEE, N-[2-(4-chlorophenyl)-1,1-dimethylethyl]-N^2-[(2′,3′-difluorobiphenyl-4-yl)carbonyl]-L-α-glutamine] | – | – | 510 | 37 | –
O=C(O)CC[C@H](NC(=O)c1ccc(-c2ccccc2)cc1)C(=O)NCCc1ccc(-c2cccs2)cc1 [Example 10D, N^2-(biphenyl-4-ylcarbonyl)-N^1-{2-[4-(2-thienyl)phenyl]ethyl}-L-α-glutamine] | – | – | – | – | IC50 ([1]; Table 1): 3200 nM; IC50 ([2]; Table 1): 480 nM
CC(C)(Cc1ccccc1)NC(=O)[C@H](CCC(=O)O)NC(=O)c1ccc(-c2ccccc2)nc1 [N-(1,1-dimethyl-2-phenylethyl)-N^2-[(6-phenylpyridin-3-yl)carbonyl]-L-α-glutamine] | – | – | 700 | 100 | –
O=C(O)CC[C@H](NC(=O)c1ccc(Oc2ccccc2)cc1)C(=O)NCCCCCCO [Example 8TTTT, N^1-(6-hydroxyhexyl)-N^2-(4-phenoxybenzoyl)-L-α-glutamine] | > 22000 | > 17000 | – | – | –
CC(C)(Cc1ccc(F)cc1)NC(=O)[C@H](CCC(=O)O)NC(=O)c1ccc(-c2ccco2)cc1 [Example 8OOOOOOO, N-[2-(4-fluorophenyl)-1,1-dimethylethyl]-N^2-[4-(2-furyl)benzoyl]-L-α-glutamine] | – | – | 100 to 400 | < 30 | –
CC(C)(Cc1ccccc1)NC(=O)[C@H](CCC(=O)O)NC(=O)c1ccc(-c2ccc(CO)cc2)cc1 [Example 17SS, N-(1,1-dimethyl-2-phenylethyl)-N^2-{[4′-(hydroxymethyl)biphenyl-4-yl]carbonyl}-L-α-glutamine] | 3960 | 450 | – | – | –
CC(C)(Cc1ccc(Cl)cc1)NC(=O)[C@H](CCC(=O)O)NC(=O)c1ccc(-c2ccccc2)o1 [N-[2-(4-chlorophenyl)-1,1-dimethylethyl]-N^2-(5-phenyl-2-furoyl)-L-α-glutamine] | – | – | – | – | Agg 2 % at concentration ([1]; Table 3, at 50000 (nM)): 50%; Agg1 % at concentration ([2]; Table 3, at 16700 (nM)): 60%
COc1cccc(-c2ccc(C(=O)N[C@@H](CCC(=O)O)C(=O)NC(C)(C)Cc3ccc(F)cc3)s2)c1 [N-[2-(4-fluorophenyl)-1,1-dimethylethyl]-N^2-{[5-(3-methoxyphenyl)-2-thienyl]carbonyl}-L-α-glutamine] | – | – | 100 to 300 | < 30 | Ki ([1]; Table 3): 143 nM; Ki ([2]; Table 3): 6.2 nM
COc1cc(CNC(=O)[C@H](CCC(=O)O)NC(=O)c2ccc(-c3cc(OC)c(OC)c(OC)c3)cc2)cc(OC)c1OC [Example 17H, N-(3,4,5-trimethoxybenzyl)-N^2-[(3′,4′,5′-trimethoxybiphenyl-4-yl)carbonyl]-L-α-glutamine] | ~22000 | 1000 | – | – | –
CC(C)(Cc1ccc(F)cc1)NC(=O)[C@H](CCC(=O)O)NC(=O)c1ccc(-c2ccccc2)cc1F [N^2-[(3-fluorobiphenyl-4-yl)carbonyl]-N-[2-(4-fluorophenyl)-1,1-dimethylethyl]-L-α-glutamine] | – | – | 200 | < 30 | –
COc1cc(CNC(=O)[C@H](CCC(=O)O)NC(=O)c2ccc(-c3ccc(OCc4cc(C(F)(F)F)cc(C(F)(F)F)c4)cc3)cc2)cc(OC)c1OC [Example 19E, N^2-[(4′-{[3,5-bis(trifluoromethyl)benzyl]oxy}biphenyl-4-yl)carbonyl]-N-(3,4,5-trimethoxybenzyl)-L-α-glutamine] | 1120 | 49 | – | – | –
Cc1cccc(CNC(=O)[C@H](CCC(=O)O)NC(=O)C2c3ccccc3-c3ccccc32)c1 [Example 8EEEEE, N^2-(9H-fluoren-9-ylcarbonyl)-N^1-(3-methylbenzyl)-L-α-glutamine] | > 200000 | > 50000 | – | – | –
O=C(O)CC[C@H](NC(=O)c1ccc(C#Cc2ccccc2)cc1)C(=O)NCc1ccccc1 [Example 12G, N-benzyl-N^2-[4-(phenylethynyl)benzoyl]-L-α-glutamine] | 11700 | > 25000 | – | – | –
Cc1ccc(-c2ccc(C(=O)N[C@@H](CCC(=O)O)C(=O)NC(C)(C)Cc3ccccc3)cc2)cc1F [Example 17L, N-(1,1-dimethyl-2-phenylethyl)-N^2-[(3′-fluoro-4′-methylbiphenyl-4-yl)carbonyl]-L-α-glutamine] | 226 | 133 | – | – | –
O=C(O)CC[C@H](NC(=O)c1ccc(-c2ccc(OCc3ccccc3-c3ccccc3)cc2)cc1)C(=O)NCc1ccccc1 [Example 15W, N-benzyl-N^2-{[4′-(biphenyl-2-ylmethoxy)biphenyl-4-yl]carbonyl}-L-α-glutamine] | – | – | – | – | Agg 2 % at concentration ([1]; Table 3, at 11000 (nM)): 59%; Agg1 % at concentration ([2]; Table 3, at 1900 (nM)): 56%
CC(C)(Cc1ccccc1)NC(=O)[C@H](CCC(=O)O)NC(=O)c1ccc(-c2ccccc2)s1 [Example 8OOOOOOOO, N-(1,1-dimethyl-2-phenylethyl)-N^2-[(5-phenyl-2-thienyl)carbonyl]-L-α-glutamine] | – | – | 200 to 600 | < 30 | –
O=C(O)CC[C@H](NC(=O)c1ccc(-c2ccccc2)cc1)C(=O)NCCc1cccc(Br)c1 [Example 8MMM, N^2-(biphenyl-4-ylcarbonyl)-N^1-[2-(3-bromophenyl)ethyl]-L-α-glutamine] | – | – | – | – | IC50 ([1]; Table 1): 500 nM; IC50 ([2]; Table 1): 40 nM
CC(C)(Cc1ccccc1)NC(=O)[C@H](CCC(=O)O)NC(=O)c1ccc(-c2ccc(Cl)s2)nc1 [N^2-{[6-(5-chloro-2-thienyl)pyridin-3-yl]carbonyl}-N-(1,1-dimethyl-2-phenylethyl)-L-α-glutamine] | – | – | 100 to 300 | 20 to 70 | Ki ([1]; Table 3): 359 nM; Ki ([2]; Table 3): 37.6 nM
CC(C)(Cc1ccc(F)cc1)NC(=O)[C@H](CCC(=O)O)NC(=O)c1ccc(-c2ccccc2)s1 [N-[2-(4-fluorophenyl)-1,1-dimethylethyl]-N^2-[(5-phenyl-2-thienyl)carbonyl]-L-α-glutamine] | – | – | 60 to 200 | < 30 | Ki ([1]; Table 3): 79 nM; Ki ([2]; Table 3): 3.8 nM
Cc1cccc(CNC(=O)[C@H](CCC(=O)O)NC(=O)c2ccc(-c3ccc(CO)cc3)cc2)c1 [Example 8PPPPPPP, N^2-{[4′-(hydroxymethyl)biphenyl-4-yl]carbonyl}-N-(3-methylbenzyl)-L-α-glutamine] | – | – | – | 3120 | inhibition at 16.7 µM ([1]; Table 3, at 16700 (nM), read-out: Agg 2 % at concentration): 48%
CC(C)(Cc1ccc(Cl)cc1)NC(=O)[C@H](CCC(=O)O)NC(=O)c1ccc(-c2cccs2)s1 [N^2-(2,2′-bithien-5-ylcarbonyl)-N-[2-(4-chlorophenyl)-1,1-dimethylethyl]-L-α-glutamine] | – | – | 600 to 1800 | < 30 | Ki ([1]; Table 3): 1150 nM; Ki ([2]; Table 3): 86 nM
